Reference: patent publication US20120245111A1, “FLAVANONES-CONTAINING FOOD COMPOSITIONS” (NESTEC S.A., priority 2009, published 2012)

Assay: Particle size distribution of hesperidin in water by laser diffraction (Malvern Mastersizer 2000)
Format: physicochemical
Protocol: The particle size distribution is observed using a microscopy optic LEICA DMR (mode Differential Interference Contrast and polarisation). The particle size distribution is measured by laser diffraction using a Malvern Mastersizer 2000.
The hesperidin obtainable by the heat treatment processes of the invention has a smaller size distribution compared to commercially available hesperidin as illustrated in FIG. 3.
For variant 3 (140° C., 60 s) and variant 4 (160° C., 10 s), the cumulative distribution of particle size below 20 microns increases to 99%. Thus, it can be seen that the heat treatment has an influence on the particle size of hesperidin and on the conformation of hesperidin particles. Therefore, sedimentation is avoided.

## COc1ccc([C@@H]2CC(=O)c3c(O)cc(O[C@@H]4O[C@H](CO[C@@H]5O[C@@H](C)[C@H](O)[C@@H](O)[C@H]5O)[C@@H](O)[C@H](O)[C@H]4O)cc3O2)cc1O [commercially available hesperidin, hesperidin]
0.5% hesperidin in water, before or after UHT treatment
  % of cumulative distribution of hesperidin particle below 20 microns: 40%
Commercially available hesperidin extract, crystalline form
  crystal size distribution range: 0.1 to 160 microns
